Test results from BindingDB's records for doi:10.1016/j.bmcl.2016.04.028 (Chinese Academy of Sciences (Cas), 2016).

What was measured:
[1] = Inhibition of FGFR3 in human RT112 cells assessed as suppression of cell proliferation after 72 hrs by SRB/CCK-8 assay
[2] = Inhibition of FGFR1 in human H1581 cells assessed as suppression of cell proliferation after 72 hrs by SRB/CCK-8 assay
[3] = Inhibition of FGFR1 in human KG1 cells assessed as suppression of cell proliferation after 72 hrs by SRB/CCK-8 assay

- IC50 [1]: < 0.2 nM
- IC50 [2]: < 0.5 nM
- IC50 [3]: < 0.2 nM
SMILES: COc1cc(CCc2cc(Nc3ncnc4cc(N5CCN6CCCCC6C5)ccc34)n[nH]2)cc(OC)c1 (stereo not drawn)
